From patent US20240158446A1, “CYCLIC COMPOUND HAVING SELECTIVE INHIBITORY ACTION ON KRAS OVER HRAS AND NRAS” (CHUGAI SEIYAKU KABUSHIKI KAISHA, priority 2021, published 2024)

Tests used:
[1] = target: GDP-bound NRAS wild-type protein (Homo sapiens, UniProt P01111); assay: Binding to NRAS by surface plasmon resonance (SPR), Single Cycle Kinetics; conditions: SPR KD ratio NRAS/KRAS, class symbols
[2] = target: GDP-bound HRAS wild-type protein (Homo sapiens, UniProt P01112); assay: Binding to HRAS by surface plasmon resonance (SPR), Single Cycle Kinetics; conditions: SPR KD ratio HRAS/KRAS, class symbols
Sequence of GDP-bound HRAS wild-type protein (P01112 whole entry): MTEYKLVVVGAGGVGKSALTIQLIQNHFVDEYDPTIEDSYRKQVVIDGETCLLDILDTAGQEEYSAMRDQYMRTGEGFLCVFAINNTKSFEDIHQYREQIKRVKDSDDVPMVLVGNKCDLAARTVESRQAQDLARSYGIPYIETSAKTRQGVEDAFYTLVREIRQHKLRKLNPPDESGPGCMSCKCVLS

Sequence of GDP-bound NRAS wild-type protein (P01111 whole entry): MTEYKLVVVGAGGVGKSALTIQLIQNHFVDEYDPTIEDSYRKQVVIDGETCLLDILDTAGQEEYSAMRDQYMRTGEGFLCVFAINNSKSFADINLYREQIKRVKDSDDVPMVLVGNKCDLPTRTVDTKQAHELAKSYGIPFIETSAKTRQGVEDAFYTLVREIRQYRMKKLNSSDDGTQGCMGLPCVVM

Row | SMILES | NRAS/KRAS (ratio of KD value with respect to GDP-bound NRAS wild-type protein to KD value with respect to KRAS) [1] | HRAS/KRAS (ratio of KD value with respect to GDP-bound HRAS wild-type protein to KD value with respect to KRAS) [2]
1 | CCOC[C@H]1C(=O)N[C@@H]([C@@H](C)CC)C(=O)N(C)CC(=O)N(C)[C@H]2C/C=C\CCN(C2=O)[C@@H](Cc2ccc(OC)cc2)C(=O)N(C)CC(=O)N[C@@H](CCc2ccc(C(F)(F)F)c(OC)c2)C(=O)N2C[C@@H](C)C[C@H]2C(=O)NC2(CC(C)(C)C2)C(=O)N(C)[C@@H](C2CCCC2)C(=O)N(C)[C@H](C(=O)N(C)CC)CC(=O)N1C [PP2702] | A (a compound having 10 or more and less than 20 is denoted as A) | B (a compound having 3 or more and less than 10 is denoted as B)
2 | CCOC[C@H]1C(=O)N[C@@H]([C@@H](C)CC)C(=O)N(C)CC(=O)N(C)[C@H]2C/C=C\CCN(C2=O)[C@@H](Cc2ccc(C(C)=O)cc2)C(=O)N(C)CC(=O)N[C@@H](CCc2ccc(C(F)(F)F)c(OC)c2)C(=O)N2C[C@@H](C)C[C@H]2C(=O)NC2(CC(C)(C)C2)C(=O)N(C)[C@@H](C2CCCC2)C(=O)N(C)[C@H](C(=O)N(C)CC)CC(=O)N1C [PP2703] | AA (a compound having 20 or more is denoted as AA) | A (a compound having 10 or more and less than 20 is denoted as A)
3 | CCOC[C@H]1C(=O)N[C@@H]([C@@H](C)CC)C(=O)N(C)CC(=O)N(C)[C@H]2C/C=C\CCN(C2=O)[C@@H](Cc2ccc3c(c2)CCC3(F)F)C(=O)N(C)CC(=O)N[C@@H](CCc2ccc(C(F)(F)F)c(OC)c2)C(=O)N2C[C@@H](C)C[C@H]2C(=O)NC2(CC(C)(C)C2)C(=O)N(C)[C@@H](C2CCCC2)C(=O)N(C)[C@H](C(=O)N(C)CC)CC(=O)N1C [PP2704] | B (a compound having 3 or more and less than 10 is denoted as B) | B (a compound having 3 or more and less than 10 is denoted as B)
4 | CCC[C@H]1C(=O)N[C@@H]([C@@H](C)CC)C(=O)N(C2CC2)CC(=O)N(C)[C@H]2C/C=C\CCN(C2=O)[C@@H](Cc2ccc(C(F)(F)F)cc2)C(=O)N(C)CC(=O)N[C@@H](CCc2cc(F)c(C(F)(F)F)c(F)c2)C(=O)N2C[C@H](OCC)C[C@H]2C(=O)NC2(CC(C)(C)C2)C(=O)N(C)[C@@H](CC(C)(C)C)C(=O)N(C)[C@H](C(=O)N(C)C)CC(=O)N1C [PP2742] | AA (a compound having 20 or more is denoted as AA) | A (a compound having 10 or more and less than 20 is denoted as A)
5 | CCO[C@@H]1C[C@H]2C(=O)NC3(CC(C)(C)C3)C(=O)N(C)[C@@H](CC(C)(C)C)C(=O)N(C)[C@H](C(=O)N(C)C)CC(=O)N(C)[C@@H](COC)C(=O)N[C@@H]([C@@H](C)CC)C(=O)N(C3CC3)CC(=O)N(C)[C@H]3C/C=C\CCN(C3=O)[C@@H](Cc3ccc(C(F)(F)F)cc3)C(=O)N(C)CC(=O)N[C@@H](CCc3ccc(Cl)c(Cl)c3)C(=O)N2C1 [PP2750] | AA (a compound having 20 or more is denoted as AA) | A (a compound having 10 or more and less than 20 is denoted as A)
6 | CCC[C@H]1C(=O)N[C@@H]([C@@H](C)CC)C(=O)N(C)CC(=O)N(C)[C@H]2C/C=C\CCN(C2=O)[C@@H](Cc2ccc(C)cc2)C(=O)N(C)CC(=O)N[C@@H](CCc2ccc(CC)c(Cl)c2)C(=O)N2C[C@H](OCC)C[C@H]2C(=O)NC2(CC(C)(C)C2)C(=O)N(C)[C@@H](C(CC)CC)C(=O)N(C)[C@H](C(=O)N(C)C)CC(=O)N1C [PP2779] | A (a compound having 10 or more and less than 20 is denoted as A) | A (a compound having 10 or more and less than 20 is denoted as A)
